The text below walks through data of US20080051319A1, “Inhibiting JNK Signaling Promotes CNS Axon Regeneration” (Children's Medical Center Corporation, priority 2006, published 2008).

SMILES strings stand for the structures.

The subject of this assay is 4 week-old rat DRGs. The assay is described as follows: in vitro neurite outgrowth assay on immobilized AP-Nogo-66. Type of assay: cell-based. Here is the method:
JNK is a member of the mitogen-activated protein kinase (MAP kinase) family which is abundantly expressed in axons and growth cones, and has been implicated in numerous roles including cell stress and cell proliferation. […] Briefly, 4 week-old rat DRGs were dissected, dissociated and plated onto immobilized substrates (AP (100 ng/cm^2) or AP-Nogo-66 (100 ng/cm^2)). Cells were cultured for 24 h before fixation with 4% paraformaldehyde and staining with a neuronal-specific anti-β-tubulin III antibody (Tuj-1, Covance). The average lengths of the longest neurite in individual neurons were measured from at least 150 neurons per condition, from duplicate wells and from three independent experiments, and quantified as described previously. Immunohistochemistry was performed using antibodies against p75 (Chemicon).

Consider `Oc1c2ccccc2c2c3c(cccc13)N=N2` [SP600125], for which the “concentrations resulting in an abortion of neurite extension” value is given as “above 5 μM”.
